Source: patent US8084625B2, “Crosslinking agent, crosslinking method, method of controlling gene expression, and method of examining gene function” (Wako Pure Chemical Industries, Ltd., priority 2005, dated 2011)
“Also recorded” adds a separate entry of the source.

Columns and labels:
EGFP [1] = test: Effectiveness versus bis-Bhc-CH3 and Bhc-diazo, EGFP/DsRed cotransfection in Hela cells (Example 7); format: cell-based
Method: (§1) As shown in the following Table 5, 0.2 μl of the crosslinking agent solution and 0.20 μl of the siRNA solution were mixed together, and the mixture thus obtained was still held for 8 hours under light shielding conditions. Subsequently, Nos. 2, 4, and 6 were irradiated with UV (350 nm) for 3 minutes using Rayonet Photochemical Reactor manufactured by Southern N. E. Ultraviolet Co.

EGFP [2] = test: RNAi-effect inhibitory ability, EGFP/DsRed cotransfection in Hela cells (Example 5); format: cell-based; settings: crosslinking agent solution 4 μM reacted with siRNA 8 hours, no UV irradiation, 48 hours culture
Method: (§2) (1) Reagents • Hela cells (American Type Culture Collection (ATCC, Rockville, Md.)) • DMEM culture medium (Dullbecco's modified Eagle culture medium, Nissui 2, manufactured by Nissui Pharmaceutical Co., Ltd.) • Opti-MEM culture medium (manufactured by GIBCO) • Trypsin solution (0.38 mg/ml EDTA aqueous solution containing 2.5 mg of trypsin, manufactured by GIBCO) • LipofectAMINE 2000 (manufactured by Invitrogen) • pEGFP-N1 vector solution
(§3) Hela cells (500 μl of the DMEM culture medium containing Hela cells and 10% of FBS) were spread on a 24-hole plate so as to obtain 3×10^4 cells/well. After 24 hours passed, the old culture medium was removed, and Hela cells were then washed with a PBS(−) solution. Subsequently, the PBS(−) solution was removed, and 500 μl of the DMEM culture medium containing 10% of FBS was added per one well. This was used as a transfection Hela cell plate.
as §1, with “2,” for “5,”, “Co. […]” for “Co.”

EGFP [3] = test: Study in cell: local UV irradiation of transfected Hela cells, EGFP/DsRed (Example 8); format: cell-based
Method: as §3, with “of” for “of the”, “DMEM” for “DMEM culture medium”, “5×10^3” for “3×10^4”, “were” for “were then”
(§4) To 9.2 μl of the Opti-MEM culture medium, 0.8 μl of LipofectAMINE 2000 was added, and the culture medium thus processed was still held for 10 minutes.
Next, the above culture medium and the transfecting sample obtained by the above ii) were mixed together, and this mixture was still held for 20 minutes.
(§5) The mixture thus obtained was added to the transfection Hela cell plate prepared by the above (2) and was then cultured at 37° C. for 6 hours using a CO2 incubator (Automatic CO2 Incubators 5400, manufactured by NAPCO).
(§6) After the culture was performed, the culture medium was removed, and Hela cells were washed with a PBS(−) solution. Subsequently, the PBS(−) solution was removed, and 500 μl of the Opti-MEM culture medium was added per one well. […]
In addition, the observation results of the fluorescence images of EGFP and DsRed obtained by using the compound 3 of the present invention are shown in FIG. 6.

EGFP [4] = settings: compound 3 4 μM
Method: The crosslinking agent solution in an amount of 0.2 μl and the siRNA solution in an amount of 0.20 μl were mixed together, and the mixture thus formed was still held for 0, 1, 2, 4, 8, or 24 hours under light shielding conditions.
After the culture was performed, transmission images of cells, and fluorescent images of EGFP and DsRed were observed.
By using a Meta Morph Analysis software (manufactured by Meta Imaging Software), the total fluorescent areas of the respective EGFP and DsRed were measured, and the ratio of EGFP/DsRed was obtained.

EGFP [5] = test: Influence of light irradiation and compound on RNAi, control siRNA (targeting luciferase), EGFP/DsRed in Hela cells (Example 9); format: cell-based
Method: The expression level obtained by transfection of siRNA which reacted with the compound of the present invention was low as that obtained by transfection of only EGFP. In order to investigate this reason, it was confirmed whether the transfection efficiency was degraded by the compound of the present invention or by the transfection itself of siRNA.
As shown in the following Table 8, 0.2 μl of the crosslinking agent solution and 0.20 μl of the siRNA solution or 0.20 μl of the control siRNA solution were mixed together, and the mixture thus obtained was still held for 8 hours under light shielding conditions.
as §4
Next, the above culture medium and the transfecting sample obtained by the above ii) or the control sample were mixed together, and this mixture was still held for 20 minutes.
as §5, §6

Lamin B1 = test: Light irradiation control of endogenous gene, Western blotting of Lamin B1 protein in Hela cells (Example 10); format: cell-based
Method: as §2, with “Md.)” for “Md.))”, “siRNA” for “pEGFP-N1 vector”
as §3, with “of” for “of the”, “DMEM” for “DMEM culture medium”, “1×10^3” for “3×10^4”
Mixing between 4.6 μl of the crosslinking agent solution and 0.46 μl of the siRNA solution was performed, and the mixture thus obtained was still held for 8 hours under light shielding conditions.
After the culture was performed, by a Western blotting method, the amounts of a Lamin B1 protein of the individual samples were quantitatively measured. […]
In addition, from the results of the Western blotting, the amounts of the Lamin B1 protein of the samples were quantitatively measured. […]

[6] = Hela cells, regardless before and after UV irradiation, bis-Bhc-CH3 4 μM, Bhc-diazo 8 μM

**Q.** With [N-]=[N+]=Cc1cc(=O)oc2cc(O)c(Br)cc12 [Bhc-diazo, 6-bromo-7-hydroxy-4-methyldiazocumarine] as the compound, how does the “binding to / crosslinking of siRNA” value (EGFP [1]) read?
**A.** Its value is “could not crosslink two chains of siRNA”.

**Q.** What about the “inhibition of the siRNA effect (relative EGFP expression level)” value (EGFP [1]; [6]) of the same compound?
**A.** The value was “the siRNA effect could be hardlyinhibited”.

**Q.** How did the “inhibition of the RNAi effect of siRNA (relative EGFP expression level)” value (EGFP [2]) turn out when [N-]=[N+]=Cc1cc(=O)oc2cc(OC(=O)CCCC(=O)OCCOC(=O)CCCC(=O)Oc3cc4oc(=O)cc(C=[N+]=[N-])c4cc3Br)c(Br)cc12 [compound 2 of the present invention, Glutaric acid (6-bromo-4-diazomethyl-2-oxo-2H-chromen)-7-yl 2-[4-(6-bromo-4-diazomethyl-2-oxo-2H-chromen-7-yloxycarbonyl)butyryloxy]ethyl ester] was run?
**A.** The value was “superior effect of inhibiting the RNAi effect”.

**Q.** For Cc1cc(=O)oc2cc(OC(=O)CC(C)(C)CC(=O)OCCOC(=O)CC(C)(C)CC(=O)Oc3cc4oc(=O)cc(C)c4cc3Br)c(Br)cc12 [bis-Bhc-CH3, 3,3-dimethylglutaric acid (6-bromo-4-methyl-2-oxo-2H-chromen)-7-yl 2-[4-(6-bromo-4-methyl-2-oxo-2H-chromen-7-yloxycarbonyl)-3,3-dimethylbutyryloxy]ethyl ester], which “binding to / crosslinking of siRNA” value (EGFP [1]) is on record?
**A.** Its value is “could not be bound to siRNA”.

**Q.** And the “inhibition of the siRNA effect (relative EGFP expression level)” value (EGFP [1]; [6])?
**A.** Its value is “the siRNA effect could be hardlyinhibited”.

**Q.** How did the “RNAi effect of siRNA at a portion not irradiated with UV” value (EGFP [3]; Hela cells transfected with siRNA crosslinked by compound 3) turn out when CC(C)(CC(=O)OCCOC(=O)CC(C)(C)CC(=O)Oc1cc2oc(=O)cc(C=[N+]=[N-])c2cc1Br)CC(=O)Oc1cc2oc(=O)cc(C=[N+]=[N-])c2cc1Br [compound 3 of the present invention, 3,3-dimethylglutaric acid (6-bromo-4-diazomethyl-2-oxo-2H-chromen)-7-yl 2-[4-(6-bromo-4-diazomethyl-2-oxo-2H-chromen-7-yloxycarbonyl)-3,3-dimethylbutyryloxy]ethyl ester] was run?
**A.** The value was “the RNAi effect of siRNA was inhibited”.

**Q.** What about the “RNAi effect of siRNA at a portion irradiated with UV” value (EGFP [3]; Hela cells, UV (335 to 385 nm) for 1 second at the center of the well, 42 hours culture) of the same compound?
**A.** The value was “the RNAi effect of siRNA was restored”.

**Q.** What about the “inhibition of the siRNA effect (relative EGFP expression level)” value (EGFP [1]; Hela cells, 4 μM, UV irradiation not performed) of the same compound?
**A.** Its value is “could inhibit the siRNA effect”.

**Q.** What about the “effect of UV irradiation on the inhibition of the siRNA effect” value (EGFP [1]; Hela cells, UV (350 nm) for 3 minutes) of the same compound?
**A.** Its value is “the inhibition was broken down by UV irradiation”.

**Q.** And the “crosslinking of siRNA when the reaction time is short” value (EGFP [4]; reaction time short (0, 1, 2, 4 hours tested))?
**A.** Its value is “could not be sufficiently crosslinked”.

**Q.** What about the “reaction time at which the reaction between crosslinking agent and siRNA reached a plateau” value (EGFP [4]; reaction times 0-24 hours, no significant difference between 8 and 24 hours) of the same compound?
**A.** The value was “approximately 8 hours”.

**Q.** And the “EGFP expression rate with control siRNA crosslinked by the compound versus control siRNA only” value (EGFP [5])?
**A.** Its value is “approximately equivalent to each other”.

**Q.** What about the “inhibition of the RNAi effect of siRNA (relative EGFP expression level)” value (EGFP [2]) of the same compound?
**A.** Its value is “superior effect of inhibiting the RNAi effect; also recorded: most superior effect”.

**Q.** What about the “restoration of the inhibited RNAi effect on Lamin B1 expression by UV irradiation” value (Lamin B1; UV irradiation as in Example 8) of the same compound?
**A.** The value was “could be restored”.

**Q.** And the “inhibition of the RNAi effect of siRNA on Lamin B1 expression” value (Lamin B1; compound 3 bound to siRNA, no UV)?
**A.** Its value is “the RNAi effect of siRNA could be inhibited”.
